{"source": "patent US20210015134A1", "about": "“CONSUMABLES” (Givaudan S.A., priority 2006, published 2021)", "type_in_all_cases": "in vivo", "key": {"[1]": {"test_system": "sweet sensitive panelists", "experiment": "Ranking test, near threshold sweetness isointensity of enhancer in water (Example 3b)", "description": "The sensory evaluation was conducted using a ranking method. Samples at ambient temperature were randomly presented in 15 ml blind aliquots (unidentifiable by panelists). […] After tasting each sample, the mouth was rinsed thoroughly with water at ambient temperature prior to tasting the next sample. […] They were asked to rank the samples from low to high with respect to perceived sweet taste."}, "[2]": {"test_system": "sweet sensitive panelists", "experiment": "Comparative sensory evaluation of sweetness enhancers in sweetener solution or water (Example 1)", "description": "Comparative sensory evaluation of sweetness enhancers in 2 or 7% sucrose\nThe test samples contained the potential sweetness enhancers in 0% sucrose (water), 2% sucrose, or 7% sucrose, and control samples of 0%, 2% and 7% sucrose without any additive. The sensory evaluations were conducted as follows. All samples were presented at ambient temperature in 15 ml aliquots to panels consisting of 5-9 sweet sensitive subjects of varying sweet sensitivity. After tasting each sample, the mouth was rinsed thoroughly with water at ambient temperature prior to tasting the next sample. The sucrose positive control (2% or 7%) was presented first and served as the sweetness reference to which all sweetness enhancer/sucrose combinations were directly compared.\nOne tasting sequence included tasting the sucrose control first, rinsing with water, tasting the sweetness enhancer/sucrose sample, rinsing with water followed by tasting the sucrose control again. Once the sequence was completed, each panelist chose the sample which was sweeter and evaluated the sweetness of each sample relative to one another.\nIn a second tasting sequence, this same procedure was followed for the water negative control versus the sweetness enhancer/water samples to determine the sweet taste due to the sweetness enhancer itself at each tested concentration.\nPanelists evaluated the sweetness of the sweetness enhancer in water for each concentration. For their evaluation, panelists were allowed to compare any perceived sweetness of the sweetness enhancer to the 2% or 7% sucrose control to determine the relative intensity of sweetness. Mild sweet taste corresponds to the taste of 2% sucrose, strong sweet taste corresponds to the taste of 7% sucrose.\nAlternatively to sucrose, the evaluation may be performed with another sweetener, for example, high fructose (55%) corn syrup (HFCS, containing 55% fructose and 45% glucose), erythritol, sucralose, aspartame, or acesulfame potassium (AceK)."}, "[3]": {"test_system": "sweet sensitive panelists", "experiment": "Ranking test, sweetness isointensity of enhancer in sweetener solution (Example 3a)", "description": "Ranking Tests to Determine the Sweetness Isointensity of Sweetness Enhancers to Sucrose Solutions\nFor comparative ranking, samples of 0.5%, 1%, 1.5%, 7%, 8%, 9%, 10% and 11% sucrose solutions were prepared.\n3a) Sweetness Isointensity of Sweetness Enhancer in Sucrose Solutions\nThe sensory evaluation was conducted using a ranking method. Samples at ambient temperature were randomly presented in 15 ml blind aliquots (unidentifiable by panelists). Panels consisted of 10 sweet sensitive subjects and samples were presented in 4 replications over 2 sessions. After tasting each sample, the mouth was rinsed thoroughly with water at ambient temperature prior to tasting the next sample. Panelists were presented with 7%, 8%, 9%, 10%, 11% sucrose samples and a sixth sample of 7% sucrose with a sweetness enhancer in a concentration near its sweetness detection threshold. They were asked to rank the samples from low to high with respect to perceived sweet taste. R-indices were calculated for 7% sucrose with the sweetness enhancer versus 7%, 8%, 9%, 10% or 11% sucrose."}, "[4]": {"test_system": "sweet sensitive panelists", "experiment": "Paired comparison of sweetness enhancers in water versus sucrose (Example 4, modified)", "description": "Paired Comparisons of Sweetness Enhancers and Mixtures Thereof in Water and 7% Sucrose\nSamples of sweetness enhancers were prepared in water or 7% sucrose. One, two or three sweetness enhancers were used in a sample. All samples were presented to panelists at ambient temperature. The sensory evaluation was conducted using a paired comparison method. […] Samples were paired randomly and presented in unidentifiable pairs of two (left and right) to the panelists in random order. The sample on the left was tasted first, followed by rinsing the mouth with water, then tasting the sample on the right. Once completing the sequence, each panelist ranked the pair of samples for sweetness then evaluated samples with respect to one another with the following descriptors (in ascending order): […]"}, "[5]": {"conditions": "45 ppm in water vs 0.5% sucrose"}, "[6]": {"conditions": "60 ppm in water vs 1.5% sucrose"}}}
{"smiles": "C[C@@H]1O[C@@H](OC2C(Oc3cc(O)c(C(=O)CCc4ccc(O)cc4)c(O)c3)OC(CO)C(O)C2O)[C@H](O)[C@H](O)[C@H]1O", "note": "(stereo in doubt) [NarDHC, -[4-[[2-O-(6-Deoxy-L-mannopyranosyl)-D-glucopyranosyl]oxy]-2,6-dihydroxyphenyl]-3-(4-hydroxyphenyl)-1-propanone]", "values": [{"measurement": "isointensity to sucrose solution", "setting": "[1]; 45 ppm in water", "result": 0.5, "unit": "% sucrose"}, {"measurement": "sample sweetness (NarDHC, 45 ppm)", "setting": "[1]; [5]", "result": "Isosweet"}, {"measurement": "sample sweetness (NarDHC, 45 ppm)", "setting": "[1]; 45 ppm in water vs 1% sucrose", "result": "less sweet"}, {"measurement": "sample sweetness (NarDHC, 60 ppm)", "setting": "[1]; 60 ppm in water vs 0.5% sucrose", "result": "sweeter"}, {"measurement": "sample sweetness (NarDHC, 60 ppm)", "setting": "[1]; 60 ppm in water vs 1% sucrose", "result": "sweeter"}, {"measurement": "sample sweetness (NarDHC, 60 ppm)", "setting": "[1]; [6]", "result": "less sweet"}, {"measurement": "Sensory evaluation of sweetness intensity", "setting": "[2]; 20 ppm in 2% sucrose", "result": "notably sweeter than sucrose control"}, {"measurement": "Sensory evaluation of sweetness intensity", "setting": "[2]; 20 ppm in water", "result": "barely perceived delayed sweetness vs. 2% sucrose"}, {"measurement": "Sensory evaluation of sweetness intensity", "setting": "[2]; 60 ppm in 2% sucrose", "result": "much sweeter than sucrose control"}, {"measurement": "Sensory evaluation of sweetness intensity", "setting": "[2]; 60 ppm in water", "result": "very weak delayed sweetness far below 2% sucrose"}, {"measurement": "Sensory evaluation of sweetness intensity", "setting": "[2]; 100 ppm in 2% sucrose", "result": "substantially sweeter than 2% sucrose control"}, {"measurement": "Sensory evaluation of sweetness intensity", "setting": "[2]; 100 ppm in water", "result": "mild sweetness slightly below 2% sucrose control"}, {"measurement": "added sucrose sweetness intensity", "setting": "[3]; 45 ppm in 7% sucrose", "result": 1, "unit": "° Brix"}, {"measurement": "sweetness isointensity to sucrose", "setting": "[3]; 45 ppm in 7% sucrose", "result": 8, "unit": "% sucrose"}, {"measurement": "NarDHC sample sweetness", "setting": "[3]; 45 ppm in 7% sucrose vs 7% sucrose", "result": "sweeter"}, {"measurement": "NarDHC sample sweetness", "setting": "[3]; 45 ppm in 7% sucrose vs 8% sucrose", "result": "isosweet"}, {"measurement": "NarDHC sample sweetness", "setting": "[3]; 45 ppm in 7% sucrose vs 9% sucrose", "result": "less sweet"}, {"measurement": "NarDHC sample sweetness", "setting": "[3]; 45 ppm in 7% sucrose vs 10% sucrose", "result": "less sweet"}, {"measurement": "NarDHC sample sweetness", "setting": "[3]; 45 ppm in 7% sucrose vs 11% sucrose", "result": "less sweet"}, {"measurement": "added sucrose sweetness intensity", "setting": "[3]; 60 ppm in 7% sucrose", "result": 2, "unit": "° Brix"}, {"measurement": "sweetness isointensity to sucrose", "setting": "[3]; 60 ppm in 7% sucrose", "result": 9, "unit": "% sucrose"}, {"measurement": "NarDHC sample sweetness", "setting": "[3]; 60 ppm in 7% sucrose vs 7% sucrose", "result": "Sweeter"}, {"measurement": "NarDHC sample sweetness", "setting": "[3]; 60 ppm in 7% sucrose vs 8% sucrose", "result": "Sweeter"}, {"measurement": "NarDHC sample sweetness", "setting": "[3]; 60 ppm in 7% sucrose vs 9% sucrose", "result": "Isosweet"}, {"measurement": "NarDHC sample sweetness", "setting": "[3]; 60 ppm in 7% sucrose vs 10% sucrose", "result": "less sweet"}, {"measurement": "NarDHC sample sweetness", "setting": "[3]; 60 ppm in 7% sucrose vs 11% sucrose", "result": "less sweet"}, {"measurement": "Result of comparison", "setting": "[4]; 45 ppm in water vs 0% sucrose", "result": "weakly sweeter"}, {"measurement": "Result of comparison", "setting": "[4]; [5]", "result": "isosweet"}, {"measurement": "Result of comparison", "setting": "[4]; 45 ppm in water vs 1% sucrose", "result": "less sweet"}, {"measurement": "Result of comparison", "setting": "[4]; 50 ppm in water vs 0.5% sucrose", "result": "notably sweeter"}, {"measurement": "Result of comparison", "setting": "[4]; 50 ppm in water vs 1% sucrose", "result": "less sweet"}, {"measurement": "isointensity to sucrose solution", "setting": "[4]; 55 ppm in water", "result": 1, "unit": "% sucrose"}, {"measurement": "Result of comparison", "setting": "[4]; 55 ppm in water vs 0.5% sucrose", "result": "notably sweeter"}, {"measurement": "Result of comparison", "setting": "[4]; 55 ppm in water vs 1% sucrose", "result": "isosweet"}, {"measurement": "Result of comparison", "setting": "[4]; 60 ppm in water vs 1% sucrose", "result": "notably sweeter"}, {"measurement": "Result of comparison", "setting": "[4]; [6]", "result": "significantly less sweet"}]}
